# Reference: US20240245783A1, “METALLO-BETA-LACTAMASE INHIBITOR” (priority 2021, published 2024)
# Tests used:
# [1] = target: T1, recombinant metallo-β-lactamase (recombinant IMP-1) (Serratia marcescens, UniProt P52699); test: Inhibition of meropenem degradation by recombinant IMP-1 (Test Example 1); assay type: biochemical; conditions: 100 μM meropenem, no inhibitor; 1 hour at 37° C.
# T1 construct: made in house; host or cells: E. coli BL21(DE3), vector pET29a
# Experimental: Based on the description of NON PATENT LITERATURE 5, a recombinant metallo-β-lactamase (recombinant IMP-1) was prepared. “NG_049172” of Database: RefSeq as the IMP-1 gene was incorporated into vector pET29a (Novagen), and then expressed in E. coli BL21(DE3) (Invitrogen).
# Recombinant IMP-1 was dissolved in a 50 mM sodium phosphate buffer (pH 7.6) at a concentration of 0.25 μg/ml. Furthermore, zinc chloride was added to the solution in such a manner that the concentration was 0.1 μM. The resultant in this state was subjected to preincubation at 37° C. for 10 minutes. […] After 1 hour of incubation at 37° C. residual meropenem was quantified by tandem mass spectrometry. Meropenem was quantified by a multiple reaction monitoring method. […]
# Reverse phase column: YMC-Triat C18 Plus column (2.1×50 mm); column temperature: 45° C.; mobile phase (2 liquids): mobile phase A (0.1% formic acid aqueous solution), mobile phase B (acetonitrile); gradient: increase from 1% B to 80% B for 10 minutes, keep it at 80% B for 0.5 minutes, and then return it to 1% B over 1 minute. […] Detection: multiple reaction monitoring, parent ion at 384.2, child ion at 68.1; measured in a positive ion mode.
# FIG. 4 depicts a graph showing the results of quantifying the peak area of meropenem detected in FIG. 3. The peak of meropenem alone is expressed as 100%.
# [2] = system: E. coli clinical isolate expressing IMP-1; test: Meropenem MIC against E. coli clinical isolate expressing IMP-1 (Test Example 10); assay type: cell-based; conditions: Escherichia coli, 24 h, read-out: minimum inhibitory concentration
# Experimental: The enhancing effect of DTPA-ADCA on the susceptibility of E. coli clinical isolate expressing IMP-1 to a carbapenem antibacterial agent (meropenem) was evaluated by the following method. The E. coli clinical isolate was cultured overnight with shaking in LB medium. The bacterial solution was diluted to 1/1000 with LB medium, used as a test bacterial solution, and then seeded in a 96-well plate. Meropenem (Wako Pure Chemical Industries, Ltd.) was added to the bacterial solution, thereby performing two-step dilution from a maximum of 10 μg/ml. The bacteria were cultured in an incubator at 37° C. for one day, and growth at that time was measured by turbidity (655 nm). The meropenem concentration at which no bacterial growth had been observed was defined as the minimum inhibitory concentration.
# The effect of DTPA-ADCA on the susceptibility of an E. coli clinical isolate to meropenem was evaluated by the following method. The E. coli clinical isolate was cultured overnight with shaking in LB medium. The bacterial solution was diluted to 1/1000 with LB medium, used as the test bacterial solution, and then seeded in a 96-well plate. Meropenem (Wako Pure Chemical Industries, Ltd.) was added to this bacterial solution in the range of 0.1 μg/ml to 0.005 μg/ml. Here, DTPA or DTPA-ADCA was used in combination therewith at a concentration of […], and the effect on bacterial growth was examined. The bacteria were cultured in an incubator at 37° C. for one day, and the growth at that time was measured by turbidity (655 nm).
# FIG. 20 depicts the results. Multidrug-resistant E. coli was cultured with compounds having the indicated concentrations and the bacterial load was assessed by turbidity after 24 hours. […] Combined use of DTPA-ADCA (20 μM) reduced the minimum inhibitory concentration of meropenem to […] and enhanced the antibacterial activity by 100 times.
# [3] = system: multidrug-resistant Pseudomonas aeruginosa; test: Growth suppression of multidrug-resistant Pseudomonas aeruginosa clinical isolates (Test Example 7); assay type: cell-based; conditions: MEPM 2 μg/ml alone, compound 8 20 μM (15.5 μg/ml) alone, Combination = both, 3 wells
# Experimental: The effect of NODA-GA-conjugated doripenem (compound 8) on the susceptibility of a Pseudomonas aeruginosa clinical isolate to a carbapenem antibacterial agent was evaluated by the following method. The Pseudomonas aeruginosa clinical isolate was cultured overnight with shaking in LB medium. The bacterial solution was diluted to 1/1000 with LB medium, used as a test bacterial solution, and then seeded in a 96-well plate. Meropenem (Wako Pure Chemical Industries, Ltd.) was added to this bacterial solution in such a manner that the concentration was 2 μg/ml. The effect of NODA-GA-doripenem alone was also examined. The bacteria were cultured in an incubator at 37° C. for one day, and the growth at that time was measured by turbidity (655 nm).
# MEPM in Table 1 is meropenem (2 μg/ml) administered alone; NODA-GA-doripenem is compound 8 (20 μM; 15.5 μg/ml) administered alone; Combination means a combined use of meropenem (2 μg/ml) and compound 8 (20 μM; 15.5 μg/ml).
# T1 sequence (P52699 19-246 limits assumed): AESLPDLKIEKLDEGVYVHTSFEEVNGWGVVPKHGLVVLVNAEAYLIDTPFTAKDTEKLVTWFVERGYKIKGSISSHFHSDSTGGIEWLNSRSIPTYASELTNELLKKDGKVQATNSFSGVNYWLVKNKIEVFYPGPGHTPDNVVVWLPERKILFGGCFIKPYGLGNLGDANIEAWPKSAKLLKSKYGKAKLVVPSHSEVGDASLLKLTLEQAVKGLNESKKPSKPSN
structure (smiles),measurement,setting,value
"C[C@@H](O)[C@H]1C(=O)N2C(C(=O)O)=C(S[C@@H]3CN[C@H](C(=O)N(C)C)C3)[C@H](C)[C@H]12 [meropenem, reference compound]",degradation of meropenem on incubation with IMP-1,[1],completely degraded
same,MIC,[2],10 µg/mL
same,suppression of bacterial growth,[3]; strain 808#1,X (x indicates that the number of wells in which suppression of bacterial growth was confirmed was 1 or less)
same,suppression of bacterial growth,[3]; strain 808#2,X (x indicates that the number of wells in which suppression of bacterial growth was confirmed was 1 or less)
same,suppression of bacterial growth,[3]; strain MR1,X (x indicates that the number of wells in which suppression of bacterial growth was confirmed was 1 or less)
same,suppression of bacterial growth,[3]; strain MR2,X (x indicates that the number of wells in which suppression of bacterial growth was confirmed was 1 or less)
same,suppression of bacterial growth,[3]; strain MR3,X (x indicates that the number of wells in which suppression of bacterial growth was confirmed was 1 or less)
same,suppression of bacterial growth,[3]; strain MR4,X (x indicates that the number of wells in which suppression of bacterial growth was confirmed was 1 or less)
same,suppression of bacterial growth,[3]; strain MR5,X (x indicates that the number of wells in which suppression of bacterial growth was confirmed was 1 or less)
same,suppression of bacterial growth,[3]; strain MR6,X (x indicates that the number of wells in which suppression of bacterial growth was confirmed was 1 or less)
same,suppression of bacterial growth,[3]; strain MR7,X (x indicates that the number of wells in which suppression of bacterial growth was confirmed was 1 or less)
same,suppression of bacterial growth,[3]; strain MR8,X (x indicates that the number of wells in which suppression of bacterial growth was confirmed was 1 or less)
same,suppression of bacterial growth,[3]; strain MR9,X (x indicates that the number of wells in which suppression of bacterial growth was confirmed was 1 or less)
same,suppression of bacterial growth,[3]; strain MR10,X (x indicates that the number of wells in which suppression of bacterial growth was confirmed was 1 or less)
same,suppression of bacterial growth,[3]; strain MR11,X (x indicates that the number of wells in which suppression of bacterial growth was confirmed was 1 or less)
same,suppression of bacterial growth,[3]; strain MR12,X (x indicates that the number of wells in which suppression of bacterial growth was confirmed was 1 or less)
same,suppression of bacterial growth,[3]; strain MR13,X (x indicates that the number of wells in which suppression of bacterial growth was confirmed was 1 or less)
same,suppression of bacterial growth,[3]; strain MR14,X (x indicates that the number of wells in which suppression of bacterial growth was confirmed was 1 or less)
same,suppression of bacterial growth,[3]; strain MR15,X (x indicates that the number of wells in which suppression of bacterial growth was confirmed was 1 or less)
same,suppression of bacterial growth,[3]; strain MR16,X (x indicates that the number of wells in which suppression of bacterial growth was confirmed was 1 or less)
same,suppression of bacterial growth,[3]; strain NM1,X (x indicates that the number of wells in which suppression of bacterial growth was confirmed was 1 or less)
same,suppression of bacterial growth,[3]; strain NM2,X (x indicates that the number of wells in which suppression of bacterial growth was confirmed was 1 or less)
same,suppression of bacterial growth,[3]; strain NM3,X (x indicates that the number of wells in which suppression of bacterial growth was confirmed was 1 or less)
same,suppression of bacterial growth,[3]; strain NM4,X (x indicates that the number of wells in which suppression of bacterial growth was confirmed was 1 or less)
same,suppression of bacterial growth,[3]; strain NM5,X (x indicates that the number of wells in which suppression of bacterial growth was confirmed was 1 or less)
